Values quoted from earlier work as cited in patent US10716758B2, “Liposomal statin formulation” (Southwest Research Institute, priority 2018, dated 2020).

Experiments:
[1] = 20° C. to 25° C.
scar, rabbit ear model = settings: relatively low doses (40 μM)

CC[C@H](C)C(=O)O[C@H]1C[C@H](O)C=C2C=C[C@H](C)[C@H](CC[C@@H](O)C[C@@H](O)CC(=O)O)[C@H]21 [pravastatin]
solubility in water (in words) [1]: soluble in water

CC[C@H](C)C(=O)O[C@H]1C[C@@H](C)C=C2C=C[C@H](C)[C@H](CC[C@@H]3C[C@@H](O)CC(=O)O3)[C@H]21 [lovastatin]
scar elevation index vs control (scar, rabbit ear model): reduction in the scar elevation index
